Where two headings read alike, the source gives them in different places.
What was measured:
[1] = Compound cytotoxicity in CEM-SS cells (MTS); type: cell-based; conditions: human, read-out: TC50 (concentration resulting in 50% cell death)
Procedure: (§1) For the HIV cytoprotection assay, CEM-SS cells were used and the viruses HIV-1IIIb, HIV-1RF, or HIV-2ROD.
(§2) Briefly, virus and cells were mixed in the presence of a test compounds and incubated for 6 days. […] Each assay plate contained the following controls: cell control wells (cells only), virus control wells (cells plus virus), compound toxicity control wells (cells plus compound only), compound calorimetric control wells (compound only), as well as the experimental wells (compound plus cells plus virus). Cytoprotection and compound cytotoxicity were assessed by MTS (CellTiter® 96 Reagent, Promega, Madison Wis.) dye reduction, and the IC50 (concentration inhibiting virus replication by 50%), TC50 (concentration resulting in 50% cell death) and a calculated TI (therapeutic index TC50/IC50) were obtained. Each assay included the HIV reverse transcriptase inhibitor AZT as a positive control.

[2] = system: HIV-1IIIB; experiment: HIV cytoprotection assay, HIV-1IIIB in CEM-SS cells (MTS); type: cell-based; conditions: for IC50: read-out: IC50 (concentration inhibiting virus replication by 50%)
Procedure: as §1, §2

[3] = system: HIV-2ROD; experiment: HIV cytoprotection assay, HIV-2ROD in CEM-SS cells (MTS); type: cell-based; conditions: for IC50: read-out: IC50 (concentration inhibiting virus replication by 50%)
Procedure: as §1, §2

[4] = system: HIV-1 p24 release from Jurkat cells; experiment: Assay for virus release (HIV-1 p24 / VLP release from transfected Jurkat cells); type: cell-based; conditions: Human immunodeficiency virus 1, Jurkat, 24 h, read-out: IC50 in the virus release assay
Procedure: The POSH inhibitor Compound 1 was tested for its efficiency of viral budding and GAG expression and processing in treated and untreated Jurkat cells. The concentration of extracellular GAG p24 was used as an indication of viral budding.
Jurkat cells were incubated with Compound 1 (5 μM) for either 1 or 3 days. The next day, cells were transfected with the plasmid pNLenyl (2 μg/ml). Virus-like particle (VLP) release was determined one day after transfection as follows: the culture medium of virus-expressing cells was collected and centrifuged at 500×g for 10 minutes. The resulting supernatant was passed through a 0.45 μm-pore filter and the filtrate was centrifuged at 14,000×g for 2 hours at 4° C. The corresponding cells were washed three times with phosphate-buffered saline (PBS) and then solubilized by incubation on ice for 15 minutes in lysis buffer containing the following components: […] Hepes-NaOH, (pH 7.5), 150 mM NaCl, 1.5 mM MgCl2, 0.3% NP-40, 0.5% sodium deoxycholate, 1 mM EDTA, 1 mM EGTA and 1:200 dilution of protease inhibitor cocktail (EMD Biosciences, Inc.). The cell detergent extract was then centrifuged for 15 minutes at 14,000×g at 4° C. […] Enhanced Chemi-Luminescence (ECL) (Amersham Biosciences, Corp.) was then detected by fluorescence imaging (Typhoon Instrument, Amersham Biosciences, Corp.).

[5] = molecular target: T1, GST tagged hPOSH (Homo sapiens, UniProt Q7Z6J0); experiment: HTS TR-FRET assay of POSH autoubiquitination; type: biochemical; conditions: GST tagged hPOSH with E1, UbCH5c, ubiquitin-cryptate, read-out: IC50 (POSH autoubiquitination, in vitro assay)
T1 construct: a fused GST-RING subunit of POSH protein
T1 sequence (Q7Z6J0 12-53 limits assumed): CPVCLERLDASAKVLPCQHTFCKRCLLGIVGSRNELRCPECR
Procedure: In order to test compounds as inhibitors of POSH, a ubiquitin protein ligase (E3) containing a RING domain that mediates its own ubiquitination in a RING finger-dependent manner in the presence of E1 and E2, a HTS (high-throughput screening) homogeneous TR-FRET (Time-Resolved Fluorescence Resonance Energy Transfer) assay was conducted to monitor POSH autoubiquitination.
The assay employs an ubiquitin-activating enzyme (E1) and an ubiquitin-conjugating enzyme (E2), a fused GST-RING subunit of POSH protein and two fluorophore-conjugated detection reagents, namely anti-GSTXL665 and europium cryptate-labeled ubiquitin. This homogeneous assay is based on FRET between a Eu^3+ cryptate donor and a second fluorescent label (acceptor), allophycocyanin. Allophycocyanin, a 105 kDa phycobiliprotein, is crosslinked to ensure its stability.
The ubiquitination of POSH by ubiquitin cryptate and binding of the anti-GST tagged XL665 brings the fluorophores into close proximity allowing FRET reaction to occur.
Self-ubiquitination of hPOSH was determined by homogenous time-resolved fluorescence resonance energy transfer assay (TR-FRET). […]
where: S=actual fluorescence, B=Fluorescence obtained in parallel incubation without […], C=Fluorescence obtained in reaction without added compounds. […]

[6] = Human immunodeficiency virus 1, 144 h, HIV-1IIIB, CEM-SS cells, 6 days

Cc1ccnc(NS(=O)(=O)c2ccc3c(c2)CCN3C(=O)/C(=C\c2cccs2)NC(=O)c2cccs2)n1 [Compound 5]
CC50 at 6 days ([1]; Table 1 (HIV-1IIIB experiment)): > 300 µM | Antiviral Index (TI), TC50/IC50 ([2]; HIV-1IIIB, CEM-SS cells): >105 | Effectiveness as anti-HIV-1IIIB agent compared to Compounds 1 and 2 ([2]; HIV-1IIIB, CEM-SS cells): far more effective | IC50 [2, 6]: 2.85 µM

Cc1cc(C)nc(NS(=O)(=O)c2ccc(NC(=O)/C(=C\c3cccs3)NC(=O)c3cccs3)cc2)n1 [Compound 1]
CC50 at 6 days ([1]; Table 1 (HIV-1IIIB experiment)): > 100 µM | CC50 at 6 days ([1]; Table 2 (HIV-2ROD experiment)): > 300 µM | Antiviral Index (TI), TC50/IC50 ([3]; HIV-2ROD, CEM-SS cells): >5.68 | IC50 ([3]; Human immunodeficiency virus 2, CEM-SS, 144 h): 52.8 µM | Antiviral Index (TI), TC50/IC50 ([2]; HIV-1IIIB, CEM-SS cells): >2.07 | IC50 ([2]; Human immunodeficiency virus 1, CEM-SS, 144 h): 48 µM | IC50 [4]: 48 µM | IC50 [5]: 2 µM

O=C(Nc1ccc(S(=O)(=O)Nc2ncccn2)cc1)/C(=C\c1cccs1)NC(=O)c1cccs1 [Compound 2]
CC50 at 6 days ([1]; Table 1 (HIV-1IIIB experiment)): 114 µM | CC50 at 6 days ([1]; Table 2 (HIV-2ROD experiment)): > 300 µM | Antiviral Index (TI), TC50/IC50 ([3]; HIV-2ROD, CEM-SS cells): >10.2 | IC50 ([3]; Human immunodeficiency virus 2, 144 h, HIV-2ROD, CEM-SS cells, 6 days): 29.5 µM | Antiviral Index (TI), TC50/IC50 ([2]; HIV-1IIIB, CEM-SS cells): 28.5 | IC50 [2, 6]: 3.99 µM
